Values joined by “and” are separate entries in the source; they are usually repeats but may differ in a detail not shown here. Identical values can stand only once. Like-named read-outs stand apart in the source and are kept apart here. Where a SMILES comes first, the peptide text is derived from it. The star is where a group is joined. Myristoyl = CCCCCCCCCCCCCC(=O)*
Tests used:
[1] = In vitro monkey plasma assay; type: in vitro ADME, cynomolgus monkey; settings: for Concentration: single replicates
Procedure: Briefly, pooled frozen plasma was thawed at 37 °C prior to experiments. Plasma was centrifuged at 3720 x g for 5 min and any clots were removed. All blanks and working solutions were aliquoted on an Apricot automation workstation (2 μL/well of working solution (100 μM) with 98 μL plasma for NACE2i peptide (CP300638) and control compounds somatostatin acetate and procaine hydrochloride). All reaction plates containing mixtures of NACE2i, somatostatin acetate, and procaine hydrochloride and plasma were incubated at 37 °C in a water bath for 0, 15, 30, 60, 120, 240, and 360 min. Incubation was stopped with 4% H3PO4 and stop solution (200 ng/mL tolbutamide and 200 ng/mL labetalol in MeOH) to precipitate protein. Each plate was sealed and shaken for 20 min and then centrifuged at 3720 x g at 4 °C for 20 min. After centrifugation, the Apricot workstation was used to transfer 150 μL supernatant to each bioanalysis plate, which was then sealed and shaken for 10 min prior to LC-MS/MS analysis as per the manufacturer’s guidelines. LC: Shimadzu LC 30-AD, MS: QTRAP 6500 + , Autosampler: CTC PAL.

CD14+ monocytes = type: cell-based, human
[2] = test system: ACE2, ACE2me, SARS-CoV-2 spike protein; design: species or system golden Syrian hamsters; settings: hamster, in vivo
H3K27ac in CD14+ PBMCs = test: H3K27ac nuclear fluorescence intensity and clock scan in CD14+ PBMCs; type: cell-based, human; settings: CD14+ PBMCs of PB and PI patients
[3] = test system: importin-α ΔIBB protein / ACE2 FITC peptide (ACE2-IMPα complex); test: Fluorescence polarization competition assay; type: binding; settings: Fig. 1b, c: EMSA, microscale thermophoresis and fluorescence polarization
Procedure: Fluorescence polarization assays were performed using the CLARIOstar Plus plate reader (BMG Labtech, Ortenberg, Germany) with the fluorescein-Ahx-tagged ACE2 peptide sequence ^766[…]^779 manufactured by GeneScript Biotech (Piscataway, NJ), NACE2i peptide sequence MYR-[…]-OH manufactured by Mimitopes Pty Ltd (Melbourne, Australia), and recombinantly expressed importin-α ΔIBB protein. Each assay contained 50 nM ACE2 FITC, 10 μM importin-α ΔIBB protein, and two-fold serially-diluted NACE2i (starting concentration 400 μM) across 10 wells in a total volume of 200 μL. Fluorescence polarization readings were taken using 96-well black Fluotrac microplates (Greiner Bio-One, Kremsmünster, Austria). Assays were repeated in triplicate and contained a negative control (no inhibitor) and blank (no importin-α ΔIBB protein). Triplicate data were normalized and fitted to a single inhibition curve using GraphPad Prism (GraphPad Software, La Jolla, CA).

SARS-CoV-2 [4] = type: in vivo, golden Syrian hamsters
[5] = design: species or system golden Syrian hamsters; settings: hamster, in vivo
[6] = test system: NFACT1, C-Rel, ACE2, pPKC-zeta, Nurr1/Nur77, HDAC1 or NFKB p50; type: cell-based; settings: Fig. 1d
SARS-CoV-2 [7] = test system: SARS-CoV-2; design: species or system golden Syrian hamsters; settings: hamster, in vivo

**Q.** With `CCCCCCCCCCCCCC(=O)N[C@H](C(=O)NCC(=O)N[C@H](C(=O)N[C@@H](CCCNC(=N)N)C(=O)N[C@@H](CC(=O)O)C(=O)N[C@@H](CCCNC(=N)N)C(=O)N[C@@H](CCCCN)C(=O)N[C@@H](CCCCN)C(=O)N[C@@H](CCCCN)C(=O)N[C@@H](CC(N)=O)C(=O)N[C@@H](CCCCN)C(=O)N[C@@H](C)C(=O)N[C@@H](CCCNC(=N)N)C(=O)N[C@@H](CO)C(=O)O)[C@@H](C)CC)[C@@H](C)O` [NACE2i] (Myristoyl-TGIRDRKKKNKARS-OH) as the compound, how does the Concentration ([1]; cynomolgus monkey plasma, time 0 min) read?
**A.** 2270 nM and 2330 nM

**Q.** What about the Concentration ([1]; cynomolgus monkey plasma, time 15 min) of the same compound?
**A.** 1960 nM and 1620 nM

**Q.** And the Concentration ([1]; cynomolgus monkey plasma, time 30 min)?
**A.** 2060 nM and 2030 nM

**Q.** What about the Concentration ([1]; cynomolgus monkey plasma, time 60 min) of the same compound?
**A.** 1840 nM and 1540 nM

**Q.** What about the Concentration ([1]; cynomolgus monkey plasma, time 120 min) of the same compound?
**A.** 1740 nM and 1890 nM

**Q.** What about the Concentration ([1]; cynomolgus monkey plasma, time 240 min) of the same compound?
**A.** 1980 nM and 1920 nM

**Q.** And the “% Remaining” value ([1]; cynomolgus monkey plasma, time 360 min, n=2)?
**A.** 76.7741%

**Q.** And the Concentration ([1]; cynomolgus monkey plasma, time 360 min)?
**A.** 1740 nM and 1850 nM

**Q.** And the remaining at 0.25 h, 2 µM ([1]; monkey, plasma (pooled, frozen), cynomolgus monkey plasma, time 15 min, n=2)?
**A.** 86.2%

**Q.** What about the remaining at 0.5 h, 2 µM ([1]; monkey, plasma (pooled, frozen), cynomolgus monkey plasma, time 30 min, n=2) of the same compound?
**A.** 90.6%

**Q.** And the remaining at 1 h, 2 µM ([1]; monkey, plasma (pooled, frozen), cynomolgus monkey plasma, time 60 min, n=2)?
**A.** 81.1%

**Q.** What about the remaining at 2 h, 2 µM ([1]; monkey, plasma (pooled, frozen), cynomolgus monkey plasma, time 120 min, n=2) of the same compound?
**A.** 76.6%

**Q.** And the remaining at 4 h, 2 µM ([1]; monkey, plasma (pooled, frozen), cynomolgus monkey plasma, time 240 min, n=2)?
**A.** 87.4%

**Q.** What about the half-life at 2 µM ([1]; pooled male cynomolgus monkey plasma, 2 µL of 100 µM working solution + 98 µL plasma, 37 °C, 0-360 min, LC-MS/MS, read-out: T1/2 in plasma) of the same compound?
**A.** 867 min

**Q.** What about the “% remaining in plasma after 360 min incubation” value ([1]; pooled male cynomolgus monkey plasma, 2 µL of 100 µM working solution + 98 µL plasma, 37 °C, 360 min, LC-MS/MS) of the same compound?
**A.** 78%

**Q.** And the “ACE2me expression in CD14+ monocytes” value (CD14+ monocytes)?
**A.** induced

**Q.** What about the “CD14+ACE2 NFI” value (CD14+ monocytes) of the same compound?
**A.** 581.219 and 687.373 and 742.928 and 1006.4 and 850.738 and 975.203 and 677.429 and 828.535

**Q.** What about the “IL-6 expression in CD14+ monocytes” value (CD14+ monocytes) of the same compound?
**A.** significantly decreased

**Q.** What about the “nuclear ACE2 expression in CD14+ monocytes” value (CD14+ monocytes) of the same compound?
**A.** significantly decreased

**Q.** What about the “nuclear ACE2 expression in infected CD14+ monocytes” value (CD14+ monocytes) of the same compound?
**A.** reduced

**Q.** And the “ACE2me in the bronchioles” value [2]?
**A.** significantly upregulated

**Q.** And the “Fn/c of ACE2” value [2]?
**A.** significantly reduced

**Q.** And the “SARS-CoV-2 spike protein expression in bronchioles” value [2]?
**A.** significantly reduced or eliminated

**Q.** And the “global ACE2 and proportion of ACE2+ cells” value [2]?
**A.** no significant change

**Q.** And the “nuclear ACE2 expression in bronchiolar epithelial cells” value [2]?
**A.** significantly reduced

**Q.** What about the “proportion of cells co-expressing ACE2 and ACE2me” value [2] of the same compound?
**A.** increased

**Q.** What about the H3K7ac mark (H3K27ac in CD14+ PBMCs) of the same compound?
**A.** successfully induced

**Q.** And the “inhibition of the ACE2-IMPα complex in vitro” value [3]?
**A.** directly inhibiting the ACE2-IMPα complex

**Q.** And the “viral RNA in the lungs” value (SARS-CoV-2 [4]; hamster, in vivo)?
**A.** significant reductions

**Q.** What about the “decrease in lung viral RNA normalized to vehicle controls” value (SARS-CoV-2 [4]; n=7, 15 mg/kg) of the same compound?
**A.** 88%

**Q.** What about the “decrease in lung viral RNA normalized to vehicle controls” value (SARS-CoV-2 [4]; n=8, 100 mg/kg) of the same compound?
**A.** 96%

**Q.** And the “decrease in mean body weights” value [5]?
**A.** lower than vehicle controls

**Q.** And the “selectivity for nuclear ACE2 versus other nuclear proteins of the importin pathway (NFI)” value [6]?
**A.** specifically targets nuclear ACE2 and not other nuclear proteins

**Q.** And the “lung infectious titers (TCID50)” value (SARS-CoV-2 [7])?
**A.** significantly reduced

Reference: PMC10300102, “In vivo inhibition of nuclear ACE2 translocation protects against SARS-CoV-2 replication and lung damage through epigenetic imprinting” (Nature Communications, 2023)
